Reference: patent US20230414644A1, “ORAL CANINE FEED AND METHODS FOR CONTROLLING FLEA INFESTATIONS IN A CANINE” (In the Bowl Animal Health, Inc., priority 2021, published 2023)

System: Ctenocephalides felis
Assay: Efficacy of spinosyn administered per os (liquid formulation, daily) to dogs against experimental flea infestation, comb counts of live adult fleas
Type: in vivo
Conditions: for percent reduction in live adult flea counts: day 14 comb count; for Efficacy (percent reduction in live adult flea counts): day 37, after the five day wash out period
Description: Efficacy of Spinosyn Administered Per Os, i.e. by Mouth, to Dogs for the Treatment and Control of Ctenocephalides felis.
Methods: A pool of 40 dogs are to be preliminarily infested with ˜100 unfed adult C. felis in order to produce a pool of dogs that can suitably sustain a reliable infestation rate of approximately 50% of live fleas over a 48-hour period. The dogs with the highest live flea counts are to be randomly allocated to 4 treatment groups (6 dogs per group) based on their pre-treatment flea counts from experimental infestations. The first treatment group is to be the control group and groups 2-4 are to be the test groups.
The dogs are to be housed individually during the study period and are to be fed a commercial dry dog food ration with ad libitum access to water.
Dogs in the control group are not to receive a spinosyn or any other flea control treatment. Each dog in test groups 2-4 is to be offered its daily ration (dry food) and the individual doses of liquid formulation are to be administered after the individual dog has eaten at least 25% of its total daily ration. After receiving the dose of a spinosyn the dogs are to be allowed to continue eating. This mimics incorporating the spinosyn in feed. Each dog in test groups 2-4 and the control group is to be experimentally infested with 100 unfed adult fleas on test days −1, 5, 12, 19, 28 and 35. Comb counts for live adult fleas are to be conducted on days 2, 7, 14, 21, 30 and 37. The final experimental infestation is to occur five days after the last daily dose of spinosyn.

Substance: spinosad
- percent reduction in live adult flea counts (0.25 mg/kg daily oral (Group 2)): 100%
- percent reduction in live adult flea counts (0.50 mg/kg daily oral (Group 3)): 100%
- Efficacy (percent reduction in live adult flea counts) (0.50 mg/kg daily oral days 0-29 (Group 3)): over 98%
- percent reduction in live adult flea counts (1.0 mg/kg daily oral (Group 4)): 100%
- Efficacy (percent reduction in live adult flea counts) (1.0 mg/kg daily oral days 0-29 (Group 4)): over 98%
